This is an account of results in patent US5496855A, “Anti-inflammatory compounds” (SmithKline Beecham Corp., priority 1995, dated 1996).

The test system of assay [1] is Arachidonic acid induced ear inflammation. As to the kind of experiment: Assay (h): Arachidonic acid induced ear inflammation (ear edema, MPO). It counts as in vivo, mouse. The following applies: topical; standard inhibitors at doses of 0.2, 0.1 and 0.3 respectively. How it is done:
(§1) Male Balb/c inbred mice are obtained from Charle River Breeding Laboratories (Kingston, N.Y.). Within a single experiment mice (22-25 g) are age-matched. These in vivo experiments typically involve the use of 5-6 animals/group.
(§2) On the day of the assay, partially thawed ear tissues are minced and then homogenized (10% w/v) with a Tissumizer homogenizer (Tekmar Co.) in 50 mM phosphate buffer (pH 6) containing 0.5% HTAB. The tissue homogenates are taken through three cycles of freeze-thaw, followed by brief sonication (10 sec). The method of Bradley et at. is used with modifications as described. […] Supernatant MPO activity is quantified kinetically (change in absorbance measured over 3 min, sampled at 15-sec intervals) using a Beckman DU-7 spectrophotometer and a Kinetics Analysis package (Beckman Instruments, Inc.). One unit of MPO activity is defined as that degrading one micromole of peroxide per minute at 25° C.
Arachidonic acid is dissolved in acetone (1 mg/ear) to the left ear of BALB/c male mice. The thickness of both cars is measured with a constant pressure thickness guage 1 hour after treatment and the data expressed as the change in thickness between treated and untreated ears. Test compounds or vehicle are given at the time of AA application. The inflammatory cell infiltration is measured by MPO activity as described above in the TPA ear edema assay. After the edema measurements are made, the inflamed ears are removed and assayed for MPO activity.

Assay [2] deals with TPA-induced Mouse Ear Inflammation. Briefly: Assay (g): TPA-induced mouse ear inflammation (ear edema, MPO). Type of assay: in vivo. The following applies: topical; standard inhibitors at doses of 0.2, 0.1 and 0.3 respectively. How it is done:
as §1
TPA (12-0-tetradecanoylphorbol 13-acetate) (Sigma Chemical Company) in acetone ([…]) is applied to the inner and outer surfaces of the left ear of BALB/c male mice. The thickness of both ears is then measured with a dial micrometer (Mitutoyo, Japan) at both 2 and 4 hours after treatment, and the data expressed as the change in thickness (10^-3 cm) between treated and untreated ears. […] After measuring the edema, the inflammed left ears are removed and stored at -70° C. until they were assayed for MPO (myeloperoxidase) activity where appropriate.
as §2
Statistical analysis is done using Student's "t" test.

`C[C@H](C(=O)O)c1ccc2cc(OCc3ccc4ccccc4n3)ccc2c1` [WY 50,295]: in assay [1], the “AA % change in edema” value is -50% and the “change in MPO, AA model” value is listed as -90. For the same molecule, in assay [2], the “TPA % change in edema” value is on record as -18% and the “change in MPO, TPA model” value is listed as -36.
Regarding `C[C@@H]1C[C@H]2[C@@H]3CCC4=CC(=O)C=C[C@]4(C)[C@@]3(F)[C@@H](O)C[C@]2(C)[C@@]1(O)C(=O)CO` [dexamethasone], in assay [1], the “AA % change in edema” value was -10% and the “change in MPO, AA model” value is 0. Moreover, in assay [2], the “TPA % change in edema” value is -50% and the “change in MPO, TPA model” value was -54.
Turning to `CC(=O)O[C@H]1C[C@@H]2[C@@]3(C)CCCC(C)(C)[C@@H]3CC[C@@]2(C)[C@@H]2CC=C(C=O)[C@H](C=O)[C@@]12C` [scalaradial], the “change in MPO, AA model” value in assay [1] is listed as -33. For the same molecule, the “change in MPO, TPA model” value in assay [2] was -65.
